Laboratory results as given in US20130245355A1, “3-HETARYL-SUBSTITUTED PYRROLO[2,3 B]PYRIDINE DERIVATIVES AS PDK1 INHIBITORS” (MERCK PATENT GMBH, priority 2010, published 2013).

What was measured:
PDK1 [1] = molecular target: T1, PDK1 (Homo sapiens, UniProt O15530); test: Test for the inhibition of PDK1 (flashplate, 33P-ATP); settings: His6-PDK1 (1-50) 3.4 nM, 4 μM ATP, 30° C., 60 min; read-out: IC50 [PDK1] biochemical
T1 construct: His6 (N)
T1 sequence (O15530 51-556 limits assumed): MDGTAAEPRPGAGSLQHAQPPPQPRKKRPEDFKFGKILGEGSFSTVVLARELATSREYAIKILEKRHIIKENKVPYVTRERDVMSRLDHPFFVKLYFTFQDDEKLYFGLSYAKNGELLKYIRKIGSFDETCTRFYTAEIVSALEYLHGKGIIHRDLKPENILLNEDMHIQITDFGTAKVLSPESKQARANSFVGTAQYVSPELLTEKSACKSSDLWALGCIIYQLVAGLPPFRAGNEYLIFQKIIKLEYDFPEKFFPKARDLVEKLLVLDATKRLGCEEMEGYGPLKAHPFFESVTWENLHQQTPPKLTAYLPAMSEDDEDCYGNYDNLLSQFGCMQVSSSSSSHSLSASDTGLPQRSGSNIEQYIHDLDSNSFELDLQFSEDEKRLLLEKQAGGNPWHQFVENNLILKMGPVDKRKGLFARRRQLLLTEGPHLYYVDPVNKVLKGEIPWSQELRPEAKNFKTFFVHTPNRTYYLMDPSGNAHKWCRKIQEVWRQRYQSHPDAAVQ
Description: The experimental batches are carried out in a flashplate system with 384 wells/microtitration plate.
In each case, the PDK1 sample His6-PDK1 (1-50) (3.4 nM), the PDK1 substrate biotin-bA-bA-[…] (400 nM), 4 μM ATP (with 0.2μ Ci of ^33P-ATP/well) and the test substance in 50 μl of conventional experimental solution per well are incubated at 30° C. for 60 min. The test substances are employed in corresponding concentrations (if desired in a dilution series). The control is carried out without test substance. The reaction is stopped using standard methods and washed. The activity of the kinase is measured via the incorporated radioactivity in top count. In order to determine the non-specific kinase reaction (blank value), the experimental batches are carried out in the presence of 100 nM staurosporin.
The radioactivity (decompositions per minute) of the blank value (no use of test substance in the presence of staurosporin) is subtracted from all other radioactivity values. The controls (kinase activity without test substance) are set equal to 100 percent and all other radioactivity values (after subtracting the blank value) are expressed set in relation thereto (for example in % of the control).
IC50 values (50% inhibition) are determined with the aid of statistics programmes, such as, for example, RS1.

PDK1 [2] = molecular target: T2, PDK1 (Homo sapiens, UniProt O15530); test: Cellular testing of PDK1 kinase inhibitors in PC3 cells (Luminex, phospho-T308-PKB); format: cell-based; settings: 30 min, serum-free
T2 construct: endogenous in cells; host or cells: PC3 cells
T2 sequence (O15530 1-556): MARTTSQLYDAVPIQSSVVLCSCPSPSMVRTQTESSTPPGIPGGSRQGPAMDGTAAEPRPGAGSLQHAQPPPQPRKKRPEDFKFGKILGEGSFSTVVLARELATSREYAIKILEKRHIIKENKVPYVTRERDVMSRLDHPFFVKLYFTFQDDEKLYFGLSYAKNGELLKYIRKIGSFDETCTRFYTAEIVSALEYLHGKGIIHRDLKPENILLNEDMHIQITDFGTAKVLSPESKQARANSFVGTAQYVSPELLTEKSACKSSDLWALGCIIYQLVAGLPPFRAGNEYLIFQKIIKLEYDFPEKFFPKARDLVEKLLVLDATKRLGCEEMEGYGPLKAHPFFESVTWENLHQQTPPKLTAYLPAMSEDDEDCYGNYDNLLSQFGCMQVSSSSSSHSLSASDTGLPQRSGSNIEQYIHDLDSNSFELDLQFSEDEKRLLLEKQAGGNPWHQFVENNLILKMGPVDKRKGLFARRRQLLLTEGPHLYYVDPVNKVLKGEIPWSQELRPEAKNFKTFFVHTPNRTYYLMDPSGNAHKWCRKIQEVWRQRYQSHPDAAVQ
Description: Method for the Cellular Testing of PDK1 Kinase Inhibitors in PC3 Cells.
The cellular assay for the determination of the PDK1 kinase activity is carried out as a Luminex assay in the 96-well format. PC3 cells are sown at 20,000 cells per well in 100 μl of medium (45% of […]/45% of Ham's F12/10% of FCS) and incubated on the following day for 30 min with a serial dilution of the test substance (7 concentrations) under serum-free conditions. The cells are subsequently lysed using 90 μl of lysis buffer (20 mM tris/HCl pH 8.0, 150 mM NaCl, 1% of NP40, 10% of glycerol, 1% of phosphatase inhibitor I, 1% of phosphatase inhibitor II, 0.1% of protease inhibitor cocktail III, 0.01% of benzonase) per well, and the lysates are separated off from insoluble cell constituents by means of centrifugation through a 96-well filter plate (0.65 μm). The lysates are incubated overnight at 4° C. with shaking with Luminex beads to which an anti-total PKB antibody is coupled. The detection is carried out on the following day by addition of a phospho-T308-PKB antibody and a species-specific […] secondary antibody. The detection of phospho T308-PKB is carried out by measurement in a Luminex100 instrument by determination of 100 events per cavity in a measurement time of 60 sec. As pharmacological blank, the signals obtained from cells which have been treated with 10 μM staurosporin are subtracted from all other batches. The control value used for maximum phosphorylation of PKB on T308 are the signals from cells which have only been treated with the solvent (0.3% of DMSO). The values of the batches treated with test substance are calculated therefrom as percentage of control, and IC50 values are determined by means of RS 1.

| SMILES | IC50 (PDK1 [1]) [µM] | IC50 (PDK1 [2]) [µM] |
| --- | --- | --- |
| C=C(c1ccccc1)c1cc(-c2c[nH]c3ncc(-c4cnn(C)c4)cc23)nn1CCO [A69] | 1 to 10 | 1 to 10 |
| Cn1cc(-c2cnc3[nH]cc(-c4noc(C(C)(O)c5cccc(F)c5F)n4)c3c2)cn1 (stereo not drawn) [A52] | 0.0005 to 1 | 1 to 10 |
| Cn1cc(-c2cnc3[nH]cc(-c4nnc(C(O)c5ccccc5C(F)(F)F)o4)c3c2)cn1 (stereo not drawn) [A86] | 0.0005 to 1 | 0.0005 to 1 |
| Cn1cc(-c2cnc3[nH]cc(-c4cc(C(C)(O)c5cccc(F)c5)[nH]n4)c3c2)cn1 (stereo not drawn) [A37, 1-(3-fluorophenyl)-1-{5-[5-(1-methyl-1H-pyrazol-4-yl)-1H-pyrrolo[2,3-b]pyridin-3-yl]-2H-pyrazol-3-yl}ethanol] | 0.0005 to 1 | 0.0005 to 1 |
| Cn1cc(-c2cnc3[nH]cc(-c4nc(C(C)(O)c5cccc(F)c5)no4)c3c2)cn1 (stereo not drawn) [A72] | 0.0005 to 1 | 0.0005 to 1 |
| Cn1cc(-c2cnc3[nH]cc(-c4n[nH]c(Cc5cccc(F)c5)n4)c3c2)cn1 [A14, 3-[5-(3-fluorobenzyl)-1H-1,2,4-triazol-3-yl]-5-(1-methyl-1H-pyrazol-4-yl)-1H-pyrrolo[2,3-b]pyridine] | 0.0005 to 1 | 1 to 10 |
| Cn1cc(-c2cnc3[nH]cc(-c4nnc(C(O)c5cccc(Cl)c5Cl)o4)c3c2)cn1 (stereo not drawn) [A65] | 0.0005 to 1 | 0.0005 to 1 |
| Cn1cc(-c2cnc3[nH]cc(-c4nc(C(C)(O)c5ccccc5)no4)c3c2)cn1 (stereo not drawn) [A67] | 1 to 10 | 0.0005 to 1 |
| Cn1cc(-c2cnc3[nH]cc(-c4nnc(C(O)c5ccccc5Cl)o4)c3c2)cn1 (racemic) [A58] | 0.0005 to 1 | 0.0005 to 1 |
| Cn1cc(-c2cnc3[nH]cc(-c4nnc(C(O)c5cccc(Cl)c5)o4)c3c2)cn1 (stereo not drawn) [A59] | 0.0005 to 1 | 0.0005 to 1 |
| Cn1cc(-c2cnc3[nH]cc(-c4cc(C(C)(O)c5ccc(=O)n(C)n5)on4)c3c2)cn1 (stereo not drawn) [A99, 6-(1-hydroxy-1-{3-[5-(1-methyl-1H-pyrazol-4-yl)-1H-pyrrolo-[2,3-b]pyridin-3-yl]isoxazol-5-yl}ethyl)-2-methyl-2H-pyridazin-3-one] | 0.0005 to 1 | 1 to 10 |
| Cn1cc(-c2cnc3[nH]cc(-c4csc(Cc5cccc(F)c5F)n4)c3c2)cn1 [A9] | 1 to 10 | 1 to 10 |
| Cn1cc(-c2cnc3[nH]cc(-c4nnc([C@@H](N)c5ccccc5Cl)o4)c3c2)cn1 [A113] | 0.0005 to 1 | 1 to 10 |
| Cn1cc(-c2cnc3[nH]cc(-c4nnc(Cc5ccccc5F)o4)c3c2)cn1 [A22] | 0.0005 to 1 | 0.0005 to 1 |
| Cn1cc(-c2cnc3[nH]cc(-c4nnc(C(O)c5ccc(Cl)cc5)o4)c3c2)cn1 (stereo not drawn) [A60] | 1 to 10 | 1 to 10 |
| Cn1cc(-c2cnc3[nH]cc(-c4cc(C(C)(O)c5ccccc5)on4)c3c2)cn1 (stereo not drawn) [A1, 1-{3-[5-(1-methyl-1H-pyrazol-4-yl)-1H-pyrrolo[2,3-b]pyridin-3-yl]isoxazol-5-yl}-1-phenylethanol] | 0.0005 to 1 | 0.0005 to 1 |
| Cn1cc(-c2cnc3[nH]cc(-c4n[nH]c(C(C)(O)c5cccc(F)c5F)n4)c3c2)cn1 (stereo not drawn) [A54] | 0.0005 to 1 | 1 to 10 |
| Cn1cc(-c2cnc3[nH]cc(-c4cc(C(C)(O)c5ccccc5F)on4)c3c2)cn1 (stereo not drawn) [A6] | 0.0005 to 1 | 0.0005 to 1 |

| SMILES | IC50 (PDK1 [1]) [µM] | IC50 (PDK1 [2]) [µM] |
| --- | --- | --- |
| Cn1cc(-c2cnc3[nH]cc(-c4cc(C(C)(O)c5cccc(F)c5F)on4)c3c2)cn1 (stereo not drawn) [A61] | 0.0005 to 1 | 0.0005 to 1 |
| Cn1cc(-c2cnc3[nH]cc(-c4n[nH]c(Cc5ccccc5)n4)c3c2)cn1 [A17] | 0.0005 to 1 | 1 to 10 |
| Cn1cc(-c2cnc3[nH]cc(-c4nnc(Cc5ccccc5)o4)c3c2)cn1 [A21] | 0.0005 to 1 | 1 to 10 |
| Cn1cc(-c2cnc3[nH]cc(-c4n[nH]c(C5(c6ccc(=O)[nH]c6)CC5)n4)c3c2)cn1 [A126, 5-(1-{5-[5-(1-methyl-1H-pyrazol-4-yl)-1H-pyrrolo[2,3-b]pyridin-3-yl]-2H-1,2,4-triazol-3-yl}cyclopropyl)-1H-pyridin-2-one] | 0.0005 to 1 | 1 to 10 |
| Cn1cc(-c2cnc3[nH]cc(-c4cc(C(C)(O)c5ccccc5Cl)on4)c3c2)cn1 (stereo not drawn) [A89] | 0.0005 to 1 | 0.0005 to 1 |
| Cn1cc(-c2cnc3[nH]cc(-c4nnc(Cc5cccc(F)c5F)o4)c3c2)cn1 [A20] | 0.0005 to 1 | 1 to 10 |
| Cn1cc(-c2cnc3[nH]cc(-c4cc(C(C)(O)c5cccc(F)c5F)[nH]n4)c3c2)cn1 (stereo not drawn) [A64] | 0.0005 to 1 | 0.0005 to 1 |
| Cn1cc(-c2cnc3[nH]cc(-c4cc([C@](C)(O)c5cccc(F)c5)on4)c3c2)cn1 (single isomer, unassigned) [A62] | 0.0005 to 1 | 1 to 10 |
| Cc1cc(C2(c3nnc(-c4c[nH]c5ncc(-c6cnn(C)c6)cc45)o3)CC2)ccn1 [A85, 5-(1-methyl-1H-pyrazol-4-yl)-3-{5-[1-(2-methylpyridin-4-yl)-cyclopropyl]-1,3,4-oxadiazol-2-yl}-1H-pyrrolo[2,3-b]pyridine] | 1 to 10 | 1 to 10 |
| COC(=O)c1ccc(C(O)c2nnc(-c3c[nH]c4ncc(-c5cnn(C)c5)cc34)o2)c(Cl)c1 (stereo not drawn) [A128, methyl 3-chloro-4-(hydroxy-{5-[5-(1-methyl-1H-pyrazol-4-yl)-1H-pyrrolo[2,3-b]-pyridin-3-yl]-1,3,4-oxadiazol-2-yl}methyl)benzoate] | 1 to 10 | 1 to 10 |
| Cn1cc(-c2cnc3[nH]cc(-c4cc(CO)on4)c3c2)cn1 [A105] | 0.0005 to 1 | 1 to 10 |
| CCC(O)(c1cc(-c2c[nH]c3ncc(-c4cnn(C)c4)cc23)no1)c1ccccc1F (stereo not drawn) [A25] | 0.0005 to 1 | 0.0005 to 1 |
| Cn1cc(-c2cnc3[nH]cc(-c4cc(C(O)c5ccccc5)n(C)n4)c3c2)cn1 (stereo not drawn) [A84] | 0.0005 to 1 | 1 to 10 |
| Cn1cc(-c2cnc3[nH]cc(-c4cc(C(O)c5ccccc5)[nH]n4)c3c2)cn1 (stereo not drawn) [A74] | 0.0005 to 1 | 0.0005 to 1 |
| Cn1cc(-c2cnc3[nH]cc(-c4nnc(C(O)c5cccc(F)c5)o4)c3c2)cn1 (stereo not drawn) [A47] | 0.0005 to 1 | 0.0005 to 1 |
| Cn1cc(-c2cnc3[nH]cc(-c4nnc(C5(c6ccccn6)CC5)o4)c3c2)cn1 [A120] | 1 to 10 | 1 to 10 |
| Cn1cc(-c2cnc3[nH]cc(-c4nnc(C(F)c5cccc(F)c5)o4)c3c2)cn1 (stereo not drawn) [A82] | 1 to 10 | 1 to 10 |
| Cn1cc(-c2cnc3[nH]cc(-c4nnc(C(C)(O)c5ccccc5F)o4)c3c2)cn1 (stereo not drawn) [A48] | 0.0005 to 1 | 0.0005 to 1 |
